Reference: the supplement of paper PMC12317010

Experiment: collision cross section in nitrogen (drift tube, single-field); higher = larger gas-phase ion size
[1] = ion type: [M+Na], ion source: ESI, ion mode: Positive
[2] = ion type: [M-H], ion source: ESI, ion mode: Negative
[3] = ion type: [M+H], ion source: ESI, ion mode: Positive
[4] = ion type: [M+], ion source: APCI, ion mode: Positive
[5] = ion type: [M+H], ion source: APCI, ion mode: Positive
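Further: chemical standards at 10 µM analysed by drift tube IMS-QTOF MS in about 3.95 torr nitrogen, mean of duplicate injections differing ≤1%, mass error below 10 ppm.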

Structure (SMILES) | collision cross section in nitrogen [1] | collision cross section in nitrogen [2] | also measured
c1cc(C(c2ccc(OCC3CO3)cc2)c2ccc(OCC3CO3)cc2)ccc1OCC1CO1 (centres undefined) | 199.3 Å² |  | 
C1CC(COCC2CO2)CCC1COCC1CO1 (centres undefined) | 160.1 Å² |  | 
C=CC(=O)OCCn1c(=O)n(CCOC(=O)C=C)c(=O)n(CCOC(=O)C=C)c1=O | 184.5 Å² |  | 
CC(C)CCCCCCCOC(=O)c1ccccc1C(=O)OCCCCCCCC(C)C | 225.8 Å² |  | 
Cc1ccc2oc(CN(Cc3ccccc3)C(=O)Nc3c(F)cc(F)cc3F)c(-c3ccc(Cl)cc3)c2c1 | 226.8 Å² | 225.2 Å² | 
CC1COCc2cc3c(cc21)C(C)(C)C(C)C3(C)C (centres undefined) |  |  | collision cross section in nitrogen [4]: 163.2 Å²
CCCc1c(OCCCOc2ccc(OCC(=O)O)cc2)ccc(C(C)=O)c1O | 191.7 Å² | 190.5 Å² | collision cross section in nitrogen [3]: 186.1 Å²
CCCCOC(=O)COC(=O)c1ccccc1C(=O)OCCCC | 193.5 Å² |  | 
CN(C)C(=O)Nc1cccc(OC(=O)NC(C)(C)C)c1 | 175 Å² |  | 
CNC(=O)ON=C(CSC)C(C)(C)C | 160.6 Å² |  | 
Cc1cc(Cl)ccc1OCC(=O)O |  | 146.1 Å² | 
N#Cc1ccc(N(CC(N)=O)CC(F)(F)F)cc1C(F)(F)F |  | 163.7 Å² | 
O=C(NS(=O)(=O)/C=C/c1ccccc1)c1ccc(F)cc1Cl | 188.9 Å² | 177.6 Å² | 
O=C(O)C1=NN(c2ccc(S(=O)(=O)O)cc2)C(=O)C1 |  | 162.5 Å² | 
O=C(O)CCN(C1(C(=O)NO)CCCC1)S(=O)(=O)c1ccc(Oc2ccc(F)cc2)cc1 | 211 Å² | 198.1 Å² | 
O=C(O)C1(c2ccc3c(c2)OC[C@H](Cc2ccc(-c4ccccc4)cc2)[C@H]3O)CCCC1 | 202.9 Å² |  | 
COC(=O)N(C(=O)N1COC2(C(=O)OC)Cc3cc(Cl)ccc3C2=N1)c1ccc(OC(F)(F)F)cc1 (racemic) [(+/-)-Indoxacarb] | 220.6 Å² |  | collision cross section in nitrogen [3]: 205.6 Å²

Structure (SMILES) | collision cross section in nitrogen [1] | collision cross section in nitrogen [2] | also measured
O=C1CC(c2ccc(O)cc2)Oc2cc(O)cc(O)c21 (racemic) [(+/-)-Naringenin] |  | 163.9 Å² | 
O=C1CCCCCN1SSN1CCCCCC1=O [1,1'-Disulfanediyldiazepan-2-one] | 168.7 Å² |  | 
CC1=Nc2ccc3ccccc3c2C1(C)C [1,1,2-Trimethyl-1H-benzo[e]indole] |  |  | collision cross section in nitrogen [5]: 145.8 Å²; collision cross section in nitrogen [3]: 146.7 Å²
C[N+]1(C)CCCCC1 [1,1-Dimethylpiperidinium chloride] |  |  | collision cross section in nitrogen (ion source: ESI, ion mode: Positive, ion type: [M]+ (permanent cation)): 121.2 Å²
CN1C(C)(C)CC(O)CC1(C)C [1,2,2,6,6-Pentamethylpiperidin-4-ol] |  |  | collision cross section in nitrogen [5]: 136 Å²; collision cross section in nitrogen [3]: 136.9 Å²
O=c1nn[nH]c2ccccc12 [1,2,3-Benzotriazin-4(1H)-one] |  | 126.4 Å² | 
c1ccc2[nH]nnc2c1 [1,2,3-Benzotriazole] |  | 118.9 Å² | collision cross section in nitrogen [5]: 120.7 Å²; collision cross section in nitrogen [3]: 122.2 Å²
Clc1cccc(Cl)c1Cl [1,2,3-Trichlorobenzene] | 144.8 Å² |  | 
O=c1[nH]sc2ccccc12 [1,2-Benzisothiazolin-3-one] |  | 127.2 Å² | 
Cc1ncc([N+](=O)[O-])n1C [1,2-Dimethyl-5-nitroimidazole] |  |  | collision cross section in nitrogen [3]: 128 Å²
O=C(O)c1cccc(C(=O)O)c1 [1,3-Benzenedicarboxylic acid] |  | 133.2 Å² | 
CN1C(=CC=O)C(C)(C)c2ccccc21 [1,3-Dihydro-1,3,3-trimethyl-2H-indol-2-ylidene acetaldehyde] |  |  | collision cross section in nitrogen [5]: 144.6 Å²; collision cross section in nitrogen [3]: 145.1 Å²; collision cross section in nitrogen [4]: 143.2 Å²
N=C1NC(=N)c2cc3ccccc3cc21 [1,3-Diiminobenz(f)isoindoline] |  |  | collision cross section in nitrogen [3]: 140.1 Å²
O=C(NCO)NCO [1,3-Dimethylolurea] | 151.7 Å² |  | 
O=[N+]([O-])c1cc([N+](=O)[O-])c2ccccc2c1 [1,3-Dinitronaphthalene] |  | 138.9 Å² | 
N=C(Nc1ccccc1)Nc1ccccc1 [1,3-Diphenylguanidine] |  |  | collision cross section in nitrogen [5]: 150.7 Å²; collision cross section in nitrogen [3]: 150.8 Å²

More lines, main results first:

collision cross section in nitrogen [1] | collision cross section in nitrogen [2] | Structure (SMILES) | also measured
 | 142.1 Å² | CC(C)(C)c1n[nH]c(=S)n(N)c1=O | 
151.6 Å² |  | CC(C)(CO)COC(=O)C(C)(C)CO | 
207.5 Å² | 199.5 Å² | CC(C)c1cccc(C(C)C)c1NC(=O)NS(=O)(=O)c1cc(C(C)(C)O)co1 | 
 | 198 Å² | CC1(C)CCC(C)(C)c2cc(C(=O)Nc3ccc(C(=O)O)cc3)ccc21 | collision cross section in nitrogen [3]: 198.2 Å²
 | 199.1 Å² | Cc1cc(NC(=O)C(=O)O)cc(C)c1Oc1ccc(O)c2c1CCC2 | 
 | 159.1 Å² | CC1=NN(c2ccc(S(=O)(=O)O)cc2)C(=O)C1 | collision cross section in nitrogen [3]: 162.7 Å²
233.4 Å² |  | CCN(Cc1cccnc1)C(=O)c1cccc(Cl)c1[C@]1(C)C(=O)N(Cc2ccc(OC)cc2OC)c2ccc(Cl)cc21 | collision cross section in nitrogen [3]: 241.2 Å²
233.5 Å² | 231.1 Å² | CC[C@@H]1C[C@H](N(Cc2cc(C(F)(F)F)cc(C(F)(F)F)c2)C(C)=O)c2cc(C(F)(F)F)ccc2N1C(=O)OC(C)C | 
182.6 Å² | 178.1 Å² | CNCc1ccc(NC(=O)c2c[nH]c3c2C(=O)CCC3)cc1 | 
 | 197.2 Å² | CN[C@H]1CC[C@@H](c2ccc(Cl)c(Cl)c2)c2ccc(S(N)(=O)=O)cc21 | 
 | 214.8 Å² | COc1cc(S(=O)(=O)O)c(C)cc1N=Nc1c(O)ccc2cc(S(=O)(=O)O)ccc12 | 
 | 217.4 Å² | Cc1c(C2(c3cc(Br)c(O)c(Br)c3C)c3ccccc3OS2(=O)=O)cc(Br)c(O)c1Br | 
189 Å² | 178 Å² | O=C(NS(=O)(=O)/C=C/c1cccs1)c1ccc(F)cc1Br | 
165.5 Å² |  | NC(=O)N(O)[C@@H]1COc2cc(OCc3ccccc3)ccc21 | 
191.1 Å² |  | NC(=O)N(O)[C@@H]1C=C[C@H](Oc2cccc(Oc3ccc(F)cc3)c2)C1 | 
 | 173.7 Å² | NC(=O)N1C(=O)C(C(=O)c2cc(Cl)cs2)c2cc(F)c(Cl)cc21 (centres undefined) | 

collision cross section in nitrogen [1] | collision cross section in nitrogen [2] | Structure (SMILES) | also measured
 | 169.4 Å² | Nc1c(S(=O)(=O)O)cc(Br)c2c1C(=O)c1ccccc1C2=O | 
 | 182.4 Å² | O=[N+]([O-])c1ccc(C=Cc2ccc([N+](=O)[O-])cc2S(=O)(=O)O)c(S(=O)(=O)O)c1 | 
206.8 Å² | 184.6 Å² | O=C(NO)C1(NS(=O)(=O)c2ccc(Oc3ccc(F)cc3)cc2)CCOCC1 | 
183.7 Å² |  | CCCCCCCCCCCCCC(=O)OCC(O)CO (racemic) [(+/-)-2,3-Dihydroxypropyl tetradecanoate] | 
 | 159.6 Å² | Oc1ccc(C2COc3cc(O)ccc3C2)cc1 (racemic) [(R,S)-Equol] | 
222 Å² |  | CC(=O)Oc1c(C)c(C)c2c(c1C)CC[C@@](C)(CCC[C@H](C)CCC[C@H](C)CCCC(C)C)O2 (racemic) [dl-alpha-Tocopheryl acetate] | collision cross section in nitrogen [3]: 226.4 Å²
194 Å² |  | CCCCN(CCCC)C(=O)N(CCCC)CCCC [1,1,3,3-Tetrabutylurea] | collision cross section in nitrogen [5]: 177.3 Å²; collision cross section in nitrogen [3]: 177.9 Å²
218.4 Å² | 217.2 Å² | Oc1ccc(C2(c3ccc(O)c(C4CCCCC4)c3)CCCCC2)cc1C1CCCCC1 [1,1-Bis(3-cyclohexyl-4-hydroxyphenyl)cyclohexane] | 
168.6 Å² | 168.6 Å² | CC(O)CN(CCN(CC(C)O)CC(C)O)CC(C)O (centres undefined) [1,1′,1′′,1′′′-(Ethylenedinitrilo)tetrakis(2-propanol)] | collision cross section in nitrogen [5]: 166.8 Å²; collision cross section in nitrogen [3]: 166.8 Å²
 | 132.6 Å² | O=C1NC(=O)C2CC=CCC12 (centres undefined) [1,2,3,6-Tetrahydrophthalimide] | 
 | 136.9 Å² | O=C(O)c1ccc(C(=O)O)c(C(=O)O)c1 [1,2,4-Benzenetricarboxylic acid] | 
144.6 Å² | 131.2 Å² | CC1=C(C#N)C(=O)N(C)C(=O)C1 [1,2-Dihydro-6-hydroxy-1,4-dimethyl-2-oxonicotinonitrile] | collision cross section in nitrogen [3]: 133.8 Å²
 | 121.6 Å² | Oc1cc(O)cc(O)c1 [1,3,5-Trihydroxybenzene dihydrate] | 
 | 121.3 Å² | O=C1CCCC(=O)C1 [1,3-Cyclohexanedione] | collision cross section in nitrogen [3]: 122.6 Å²
196.6 Å² | 190.8 Å² | Cc1cc(C2(c3ccc(O)c(C)c3)C(=O)Nc3ccccc32)ccc1O [1,3-Dihydro-3,3-bis(4-hydroxy-m-tolyl)-2H-indol-2-one] | collision cross section in nitrogen [3]: 185.4 Å²
165.9 Å² | 154.4 Å² | O=C(CC(=O)c1ccccc1)c1ccccc1 [1,3-Diphenyl-1,3-propanedione] | 
